Laboratory results published in patent publication US10772893B2, “2-(morpholin-4-yl)-1,7-naphthyridines” (BAYER PHARMA AKTIENGESELLSCHAFT, priority 2014, dated 2020).
Where a name gives a salt, the structure may show the parent alone.

Tests used:
Assay in all cases: Proliferation assay, crystal violet staining
[1] = test system: HeLa-MaTu-ADR cells; format: cell-based; conditions: Homo sapiens, 96 h, 4 days incubation, read-out: Inhibition of HeLa-MaTu-ADR cell proliferation
Method: (§1) After 24 hours, the cells of one plate (zero plate) were dyed with crystal violet (see below), whereas the medium of the other plates was replaced with fresh culture medium (200 μl) to which the test substances were added in various concentrations (0 μM, and also in the range of 0.001-10 μM; the final concentration of the solvent dimethyl sulphoxide was 0.1 or 0.5%). The cells were incubated for 4 days in the presence of the test substances. […] After washing the fixed cells three times with water, the plates were dried at room temperature. The cells were stained by adding 100 μl/measurement point of a 0.1% strength crystal violet solution (pH adjusted to pH 3 by adding acetic acid). After washing the cells three times with water, the plates were dried at room temperature. The dye was dissolved by adding 100 μl/measurement point of a 10% strength acetic acid solution. […] The percentage change in cell growth was calculated by normalizing the measured values to the absorbance values of the zero plate (=0%) and the absorbance of the untreated (0 W) cells (=100%). The IC50 values were determined by means of a four parameter fit.

[2] = test system: Caco-2 cells; format: cell-based; conditions: Homo sapiens, Caco-2, 96 h, 4 days incubation, read-out: Inhibition of Caco-2 cell proliferation
Method: as §1

[3] = test system: HeLa cells; conditions: Homo sapiens, 96 h, read-out: Inhibition of HeLa cell proliferation, HeLa cells, 4 days incubation
[4] = test system: NCI-H460 cells; conditions: Homo sapiens, NCI-H460, 96 h, read-out: Inhibition of NCI-H460 cell proliferation, NCI-H460 cells, 4 days incubation
Method: as §1

[5] = test system: DU145 cells; conditions: Homo sapiens, DU-145, 96 h, read-out: Inhibition of DU145 cell proliferation, DU145 cells, 4 days incubation
Method: as §1

| Compound | IC50 [1] | IC50 [2] | IC50 [3] | IC50 [4] | IC50 [5] |
| --- | --- | --- | --- | --- | --- |
| CS(=O)(=O)c1ccccc1-c1cc(N2CCOCC2)nc2c(-c3cc[nH]n3)nccc12 [Example 8, 4-(2-methanesulphonylphenyl)-2-(morpholin-4-yl)-8-(1H-pyrazol-3-yl)-[1,7]naphthyridine Hydrochloride] | > 3000 nM | > 3000 nM | 2260 nM | 909 nM | 2050 nM |
| C=C(C)c1cc(N2CCOCC2)nc2c(-c3cc[nH]n3)nccc12 [Example 10, 4-Isopropenyl-2-(morpholin-4-yl)-8-(1H-pyrazol-3-yl)-[1,7]naphthyridine] | 1300 nM | 1460 nM | 496 nM | 447 nM | 827 nM |
| CS(=O)(=O)c1cccc(-c2cc(N3CCOCC3)nc3c(-c4cc[nH]n4)nccc23)c1 [Example 15, 4-(3-methanesulphonylphenyl)-2-(morpholin-4-yl)-8-(1H-pyrazol-3-yl)-[1,7]naphthyridine] | > 3000 nM | 1720 nM | 1410 nM | 528 nM | 817 nM |
| C[C@@H]1COCCN1c1cc(-c2ccc(S(C)(=O)=O)cc2)c2ccnc(-c3cc[nH]n3)c2n1 [Example 26, 4-(4-methanesulphonylphenyl)-2-((R)-3-methylmorpholin-4-yl)-8-(2H-pyrazol-3-yl)-[1,7]naphthyridine] | > 1000 nM | > 1000 nM | 296 nM | 586 nM | 725 nM |
| C[C@@H]1COCCN1c1cc(C2CC2)c2ccnc(-c3cc[nH]n3)c2n1 [Example 29] | 498 nM | 577 nM | 394 nM | 243 nM | 291 nM |
| C[C@@H]1COCCN1c1cc(-c2ccc(S(C)(=N)=O)cc2)c2ccnc(-c3ccn[nH]3)c2n1 (stereo partly drawn) [Example 30, 4-[2-((R)-3-methylmorpholin-4-yl)-8-(2H-pyrazol-3-yl)-[1,7]naphthyridine-4-yl]phenyl-S-methylsulphoximide] | > 3000 nM | 2890 nM | 512 nM | 293 nM | 325 nM |
| C[C@@H]1COCCN1c1cc(-c2cccc(S(C)(=N)=O)c2)c2ccnc(-c3ccn[nH]3)c2n1 (stereo partly drawn) [Example 31, 3-[2-((R)-3-methylmorpholin-4-yl)-8-(2H-pyrazol-3-yl)-[1,7]naphthyridine-4-yl]phenyl-S-methylsulphoximide] | > 3000 nM | > 3000 nM | 1250 nM | 685 nM | 1110 nM |
| CS(=O)(=O)c1cc(N2CCOCC2)nc2c(-c3cc[nH]n3)nccc12 [Example 32] | > 3000 nM | > 3000 nM | 1560 nM | > 3000 nM | 1840 nM |
| C[C@@H]1COCCN1c1cc(S(C)(=O)=O)c2ccnc(-c3ccn[nH]3)c2n1 [Example 33, 2-[(3R)-3-methylmorpholin-4-yl]-4-(methylsulfonyl)-8-(1H-pyrazol-5-yl)-1,7-naphthyridine] | > 3000 nM | 653 nM |  | 269 nM | 1010 nM |
| N#Cc1cc(N2CCOCC2)nc2c(-c3cc[nH]n3)nccc12 [Example 34, 2-(morpholin-4-yl)-8-(1H-pyrazol-3-yl)-[1,7]naphthyridine-4-carbonitrile] | > 3000 nM | 4990 nM | 1020 nM | 1630 nM | 2390 nM |
| CC(C)Oc1cc(N2CCOCC2)nc2c(-c3cc[nH]n3)nccc12 [Example 40, 4-Isopropoxy-2-(morpholin-4-yl)-8-(1H-pyrazol-3-yl)-[1,7]naphthyridine] | 2260 nM | 1970 nM | 2720 nM | 672 nM | 1150 nM |
| COc1cc(N2CCOCC2)nc2c(-c3cc[nH]n3)nccc12 [Example 44, 4-methoxy-2-(morpholin-4-yl)-8-(1H-pyrazol-3-yl)-[1,7]naphthyridine] | > 10000 nM | 7690 nM | 1010 nM | 2010 nM | 4450 nM |
| CC(C)Oc1cc(N2CCOC[C@H]2C)nc2c(-c3cc[nH]n3)nccc12 [Example 51, 4-Isopropoxy-2-((R)-3-methylmorpholin-4-yl)-8-(1H-pyrazol-3-yl)-[1,7]naphthyridine] | 1800 nM | 2930 nM | 1230 nM | 391 nM | 895 nM |
| c1cc2c(C3CCOCC3)cc(N3CCOCC3)nc2c(-c2cc[nH]n2)n1 [Example 60, 2-(morpholin-4-yl)-8-(1H-pyrazol-5-yl)-4-(tetrahydro-2H-pyran-4-yl)-1,7-naphthyridine] | 2170 nM | 1980 nM | 998 nM | 691 nM | 730 nM |
| CSc1cc(N2CCOC[C@H]2C)nc2c(-c3ccn[nH]3)nccc12 [Example 63, 2-[(3R)-3-methylmorpholin-4-yl]-4-(methylsulfanyl)-8-(1H-pyrazol-5-yl)-1,7-naphthyridine] | 1530 nM | 1540 nM |  | 308 nM | 915 nM |
| C[C@@H]1COCCN1c1cc(N=S2(=O)CCOCC2)c2ccnc(-c3ccn[nH]3)c2n1 [Example 64, N-{2-[(3R)-3-methylmorpholin-4-yl]-8-(1H-pyrazol-5-yl)-1,7-naphthyridin-4-yl}-1,4λ^4-oxathian-4-imine 4-oxide] | 1170 nM | 844 nM |  | 92.3 nM | 506 nM |
| Cc1nc(S(C)(=O)=O)ccc1-c1cc(N2CCOC[C@H]2C)nc2c(-c3ccn[nH]3)nccc12 [Example 73, 4-[2-methyl-6-(methylsulfonyl)pyridin-3-yl]-2-[(3R)-3-methylmorpholin-4-yl]-8-(1H-pyrazol-5-yl)-1,7-naphthyridine] | 1790 nM | 631 nM | 181 nM | 59 nM | 748 nM |
| C[C@@H]1COCCN1c1cc(-c2ccc(S(C)(=O)=O)cc2F)c2ccnc(-c3ccn[nH]3)c2n1 [Example 74, 4-[2-fluoro-4-(methylsulfonyl)phenyl]-2-[(3R)-3-methylmorpholin-4-yl]-8-(1H-pyrazol-5-yl)-1,7-naphthyridine] | > 1000 nM | > 1000 nM | 203 nM | > 1000 nM | > 1000 nM |
| Cc1cc(S(C)(=O)=O)ncc1-c1cc(N2CCOC[C@H]2C)nc2c(-c3ccn[nH]3)nccc12 [Example 79, 4-[4-methyl-6-(methylsulfonyl)pyridin-3-yl]-2-[(3R)-3-methylmorpholin-4-yl]-8-(1H-pyrazol-5-yl)-1,7-naphthyridine] | 2300 nM | 868 nM | 303 nM | 93.7 nM | 656 nM |
| Cc1ccc(-c2cc(N3CCOC[C@H]3C)nc3c(-c4ccn[nH]4)nccc23)cn1 [Example 88, 2-[(3R)-3-methylmorpholin-4-yl]-4-(6-methylpyridin-3-yl)-8-(1H-pyrazol-5-yl)-1,7-naphthyridine] | 291 nM | 286 nM | 157 nM | 81.7 nM | 104 nM |
| CCS(=O)(CC)=Nc1cc(N2CCOC[C@H]2C)nc2c(-c3ccn[nH]3)nccc12 [Example 126, 4-{[diethyl(oxido)-λ^6-sulfanylidene]amino}-2-[(3R)-3-methylmorpholin-4-yl]-8-(1H-pyrazol-5-yl)-1,7-naphthyridine] | 595 nM | 340 nM | 170 nM | 88.4 nM | 94 nM |
| C[C@@H]1COCCN1c1cc(N=S2(=O)CCCC2)c2ccnc(-c3ccn[nH]3)c2n1 [Example 137, N-{2-[(3R)-3-methylmorpholin-4-yl]-8-(1H-pyrazol-5-yl)-1,7-naphthyridin-4-yl}tetrahydro-1H-1λ^4-thiophen-1-imine 1-oxide] | 791 nM | 549 nM | 383 nM | 153 nM | 146 nM |
| C[C@@H]1COCCN1c1cc(N2CCOCC2)c2ccnc(-c3ccn[nH]3)c2n1 [Example 145, 2-[(3R)-3-methylmorpholin-4-yl]-4-(morpholin-4-yl)-8-(1H-pyrazol-5-yl)-1,7-naphthyridine] | 522 nM | 492 nM | 248 nM | 90.6 nM | 30.5 nM |
| CC(C)S(=O)(=O)c1ccc(-c2cc(N3CCOC[C@H]3C)nc3c(-c4ccn[nH]4)nccc23)cc1 [Example 151, 4-[4-(isopropylsulfonyl)phenyl]-2-[(3R)-3-methylmorpholin-4-yl]-8-(1H-pyrazol-5-yl)-1,7-naphthyridine] | 2150 nM | 2050 nM | 921 nM | 673 nM | 1900 nM |
| C[C@@H]1COCCN1c1cc(N2CCN(C)C(=O)C2)c2ccnc(-c3ccn[nH]3)c2n1 [Example 157, 1-methyl-4-{2-[(3R)-3-methylmorpholin-4-yl]-8-(1H-pyrazol-5-yl)-1,7-naphthyridin-4-yl}piperazin-2-one] | > 3000 nM | > 3000 nM | 872 nM | > 3000 nM | > 3000 nM |
| CC(C)[S+]([O-])c1cc(N2CCOCC2)nc2c(-c3ccn[nH]3)nccc12 (stereo not drawn) [Example 196, 2-(morpholin-4-yl)-4-[propan-2-ylsulfinyl]-8-(1H-pyrazol-5-yl)-1,7-naphthyridine] | > 3000 nM | 869 nM | 1020 nM | 291 nM | 144 nM |
| C[C@@H]1COCCN1c1cc(OCCCS(C)(=O)=O)c2ccnc(-c3ccn[nH]3)c2n1 [Example 197, 2-[(3R)-3-methylmorpholin-4-yl]-4-[3-(methylsulfonyl)propoxy]-8-(1H-pyrazol-5-yl)-1,7-naphthyridine] | > 3000 nM | > 3000 nM | 1010 nM | 516 nM | 129 nM |
